Here are results for seven molecules from paper PMC11352961, “Peptide dendrimers transfecting CRISPR/Cas9 plasmid DNA: optimization and mechanism” (RSC Chemical Biology, 2024).

Molecules are shown by their SMILES. Bridge positions count the residues as written; N and C are the ends. Square brackets hold non-standard residues; d marks the D form. Side chains are listed from the residue outwards. Peptide text beside a SMILES is read from it. I, II: the chains in the order shown. * marks the point of attachment. Stearoyl = CCCCCCCCCCCCCCCCCC(=O)*; Palmitoyl = CCCCCCCCCCCCCCCC(=O)*

For one data set, the system named is HEK293 cells. Description: Cell viability by PrestoBlue assay after transfection, HEK cells. The data set is classed as cell-based. Conditions: 4 h.
For another data set, the system named is HeLa cells. Description: Cell viability by PrestoBlue assay after transfection, HeLa cells. Type of data set: cell-based. Particulars: 4 h.

Turning to `CC(C)C[C@H](NC(=O)[C@H](CCCCN)NC(=O)[C@H](CCCCNC(=O)[C@H](CC(C)C)NC(=O)[C@H](CCCCN)NC(=O)[C@H](CCCCNC(=O)[C@H](CC(C)C)NC(=O)[C@@H](N)CCCCN)NC(=O)[C@H](CC(C)C)NC(=O)[C@@H](N)CCCCN)NC(=O)[C@H](CC(C)C)NC(=O)[C@H](CCCCN)NC(=O)[C@H](CCCCNC(=O)[C@H](CC(C)C)NC(=O)[C@@H](N)CCCCN)NC(=O)[C@H](CC(C)C)NC(=O)[C@@H](N)CCCCN)C(=O)NCCCC[C@H](NC(=O)[C@H](CC(C)C)NC(=O)[C@H](CCCCN)NC(=O)[C@H](CCCCNC(=O)[C@H](CC(C)C)NC(=O)[C@H](CCCCN)NC(=O)[C@H](CCCCNC(=O)[C@H](CC(C)C)NC(=O)[C@@H](N)CCCCN)NC(=O)[C@H](CC(C)C)NC(=O)[C@@H](N)CCCCN)NC(=O)[C@H](CC(C)C)NC(=O)[C@H](CCCCN)NC(=O)[C@H](CCCCNC(=O)[C@H](CC(C)C)NC(=O)[C@@H](N)CCCCN)NC(=O)[C@H](CC(C)C)NC(=O)[C@@H](N)CCCCN)C(=O)NCC(=O)N[C@@H](CO)C(=O)N[C@@H](CS)C(N)=O` [G123KL, reference compound] (I: H-KLK([Leu-Lys])KLKKLKGSC-NH2 / II: H-KLK([Leu-Lys])KLKKL / III: H-KLK([Leu-Lys])KL / IV: H-KLK([Leu-Lys])KL; amide I:6-IV:C, I:9-II:C, II:6-III:C), in the data set on HEK293 cells, the “% viability HEK cells” value came to 52 ± 9%. Regarding `CCCCCCCCCCCCCCCCCC(=O)NCCCC[C@H](NC(=O)[C@H](CCCCNC(=O)CCCCCCCCCCCCCCCCC)NC(=O)[C@H](CCCCNC(=O)[C@H](CC(C)C)NC(=O)[C@H](CCCCN)NC(=O)[C@H](CCCCNC(=O)[C@H](CC(C)C)NC(=O)[C@H](CCCCN)NC(=O)[C@H](CCCCNC(=O)[C@H](CC(C)C)NC(=O)[C@@H](N)CCCCN)NC(=O)[C@H](CC(C)C)NC(=O)[C@@H](N)CCCCN)NC(=O)[C@H](CC(C)C)NC(=O)[C@H](CCCCN)NC(=O)[C@H](CCCCNC(=O)[C@H](CC(C)C)NC(=O)[C@@H](N)CCCCN)NC(=O)[C@H](CC(C)C)NC(=O)[C@@H](N)CCCCN)NC(=O)[C@H](CC(C)C)NC(=O)[C@H](CCCCN)NC(=O)[C@H](CCCCNC(=O)[C@H](CC(C)C)NC(=O)[C@H](CCCCN)NC(=O)[C@H](CCCCNC(=O)[C@H](CC(C)C)NC(=O)[C@@H](N)CCCCN)NC(=O)[C@H](CC(C)C)NC(=O)[C@@H](N)CCCCN)NC(=O)[C@H](CC(C)C)NC(=O)[C@H](CCCCN)NC(=O)[C@H](CCCCNC(=O)[C@H](CC(C)C)NC(=O)[C@@H](N)CCCCN)NC(=O)[C@H](CC(C)C)NC(=O)[C@@H](N)CCCCN)C(N)=O` [Z2] (I: H-KLK([Leu-Lys])KLKKLKK(Stearoyl)K(Stearoyl)-NH2 / II: H-KLK([Leu-Lys])KLKKL / III: H-KLK([Leu-Lys])KL / IV: H-KLK([Leu-Lys])KL; amide I:6-IV:C, I:9-II:C, II:6-III:C), in the data set with HeLa cells, the “% viability HeLa cells” value was found to be 47 ± 3%. In the data set with HEK293 cells, the “% viability HEK cells” value was determined as 79 ± 11%. With `CC(C)C[C@H](NC(=O)[C@H](CC(C)C)NC(=O)[C@H](CC(C)C)NC(=O)[C@H](CC(C)C)NC(=O)[C@H](CC(C)C)NC(=O)[C@H](CCCCNC(=O)[C@H](CC(C)C)NC(=O)[C@H](CCCCN)NC(=O)[C@H](CCCCNC(=O)[C@H](CC(C)C)NC(=O)[C@H](CCCCN)NC(=O)[C@H](CCCCNC(=O)[C@H](CC(C)C)NC(=O)[C@@H](N)CCCCN)NC(=O)[C@H](CC(C)C)NC(=O)[C@@H](N)CCCCN)NC(=O)[C@H](CC(C)C)NC(=O)[C@H](CCCCN)NC(=O)[C@H](CCCCNC(=O)[C@H](CC(C)C)NC(=O)[C@@H](N)CCCCN)NC(=O)[C@H](CC(C)C)NC(=O)[C@@H](N)CCCCN)NC(=O)[C@H](CC(C)C)NC(=O)[C@H](CCCCN)NC(=O)[C@H](CCCCNC(=O)[C@H](CC(C)C)NC(=O)[C@H](CCCCN)NC(=O)[C@H](CCCCNC(=O)[C@H](CC(C)C)NC(=O)[C@@H](N)CCCCN)NC(=O)[C@H](CC(C)C)NC(=O)[C@@H](N)CCCCN)NC(=O)[C@H](CC(C)C)NC(=O)[C@H](CCCCN)NC(=O)[C@H](CCCCNC(=O)[C@H](CC(C)C)NC(=O)[C@@H](N)CCCCN)NC(=O)[C@H](CC(C)C)NC(=O)[C@@H](N)CCCCN)C(N)=O` [Z3] (I: H-KLK([Leu-Lys])KLKKLKLLLLL-NH2 / II: H-KLK([Leu-Lys])KLKKL / III: H-KLK([Leu-Lys])KL / IV: H-KLK([Leu-Lys])KL; amide I:6-IV:C, I:9-II:C, II:6-III:C), the “% viability HeLa cells” value in the data set with HeLa cells turned out to be 51 ± 5%. Also, the “% viability HEK cells” value with HEK293 cells is reported as 76 ± 7%. With `CCCCCCCCCCCCCCCC(=O)NCCCC[C@H](NC(=O)[C@H](CCCCNC(=O)[C@H](CC(C)C)NC(=O)[C@H](CCCCN)NC(=O)[C@H](CCCCNC(=O)[C@H](CC(C)C)NC(=O)[C@H](CCCCN)NC(=O)[C@H](CCCCNC(=O)[C@H](CC(C)C)NC(=O)[C@@H](N)CCCCN)NC(=O)[C@H](CC(C)C)NC(=O)[C@@H](N)CCCCN)NC(=O)[C@H](CC(C)C)NC(=O)[C@H](CCCCN)NC(=O)[C@H](CCCCNC(=O)[C@H](CC(C)C)NC(=O)[C@@H](N)CCCCN)NC(=O)[C@H](CC(C)C)NC(=O)[C@@H](N)CCCCN)NC(=O)[C@H](CC(C)C)NC(=O)[C@H](CCCCN)NC(=O)[C@H](CCCCNC(=O)[C@H](CC(C)C)NC(=O)[C@H](CCCCN)NC(=O)[C@H](CCCCNC(=O)[C@H](CC(C)C)NC(=O)[C@@H](N)CCCCN)NC(=O)[C@H](CC(C)C)NC(=O)[C@@H](N)CCCCN)NC(=O)[C@H](CC(C)C)NC(=O)[C@H](CCCCN)NC(=O)[C@H](CCCCNC(=O)[C@H](CC(C)C)NC(=O)[C@@H](N)CCCCN)NC(=O)[C@H](CC(C)C)NC(=O)[C@@H](N)CCCCN)C(N)=O` [Z4] (I: H-KLK([Leu-Lys])KLKKLKK(Palmitoyl)-NH2 / II: H-KLK([Leu-Lys])KLKKL / III: H-KLK([Leu-Lys])KL / IV: H-KLK([Leu-Lys])KL; amide I:6-IV:C, I:9-II:C, II:6-III:C), in the data set with HeLa cells, the “% viability HeLa cells” value is 88 ± 11%. For the same molecule, in the data set on HEK293 cells, the “% viability HEK cells” value stood at 89 ± 11%.

Take `CCCCCCCCCCCCCCCCCC(=O)NCCCC[C@H](NC(=O)[C@H](CCCCNC(=O)[C@H](CC(C)C)NC(=O)[C@H](CCCCN)NC(=O)[C@H](CCCCNC(=O)[C@H](CC(C)C)NC(=O)[C@H](CCCCN)NC(=O)[C@H](CCCCNC(=O)[C@H](CC(C)C)NC(=O)[C@@H](N)CCCCN)NC(=O)[C@H](CC(C)C)NC(=O)[C@@H](N)CCCCN)NC(=O)[C@H](CC(C)C)NC(=O)[C@H](CCCCN)NC(=O)[C@H](CCCCNC(=O)[C@H](CC(C)C)NC(=O)[C@@H](N)CCCCN)NC(=O)[C@H](CC(C)C)NC(=O)[C@@H](N)CCCCN)NC(=O)[C@H](CC(C)C)NC(=O)[C@H](CCCCN)NC(=O)[C@H](CCCCNC(=O)[C@H](CC(C)C)NC(=O)[C@H](CCCCN)NC(=O)[C@H](CCCCNC(=O)[C@H](CC(C)C)NC(=O)[C@@H](N)CCCCN)NC(=O)[C@H](CC(C)C)NC(=O)[C@@H](N)CCCCN)NC(=O)[C@H](CC(C)C)NC(=O)[C@H](CCCCN)NC(=O)[C@H](CCCCNC(=O)[C@H](CC(C)C)NC(=O)[C@@H](N)CCCCN)NC(=O)[C@H](CC(C)C)NC(=O)[C@@H](N)CCCCN)C(=O)N[C@@H](CS)C(N)=O` [Z12] (I: H-KLK([Leu-Lys])KLKKLKK(Stearoyl)C-NH2 / II: H-KLK([Leu-Lys])KLKKL / III: H-KLK([Leu-Lys])KL / IV: H-KLK([Leu-Lys])KL; amide I:6-IV:C, I:9-II:C, II:6-III:C): in the data set on HeLa cells, the “% viability HeLa cells” value amounted to 112 ± 10%. Besides, the “% viability HEK cells” value with HEK293 cells amounted to 80 ± 5%.

As to `CCCCCCCCCCCCCCCCCC(=O)NCCCC[C@H](NC(=O)[C@H](CCCCNC(=O)[C@H](CC(C)C)NC(=O)[C@H](CCCCN)NC(=O)[C@H](CCCCNC(=O)[C@H](CC(C)C)NC(=O)[C@H](CCCCN)NC(=O)[C@H](CCCCNC(=O)[C@H](CC(C)C)NC(=O)[C@@H](N)CCCCN)NC(=O)[C@H](CC(C)C)NC(=O)[C@@H](N)CCCCN)NC(=O)[C@H](CC(C)C)NC(=O)[C@H](CCCCN)NC(=O)[C@H](CCCCNC(=O)[C@H](CC(C)C)NC(=O)[C@@H](N)CCCCN)NC(=O)[C@H](CC(C)C)NC(=O)[C@@H](N)CCCCN)NC(=O)[C@H](CC(C)C)NC(=O)[C@H](CCCCN)NC(=O)[C@H](CCCCNC(=O)[C@H](CC(C)C)NC(=O)[C@H](CCCCN)NC(=O)[C@H](CCCCNC(=O)[C@H](CC(C)C)NC(=O)[C@@H](N)CCCCN)NC(=O)[C@H](CC(C)C)NC(=O)[C@@H](N)CCCCN)NC(=O)[C@H](CC(C)C)NC(=O)[C@H](CCCCN)NC(=O)[C@H](CCCCNC(=O)[C@H](CC(C)C)NC(=O)[C@@H](N)CCCCN)NC(=O)[C@H](CC(C)C)NC(=O)[C@@H](N)CCCCN)C(=O)N[C@@H](C)C(N)=O` [Z15] (I: H-KLK([Leu-Lys])KLKKLKK(Stearoyl)A-NH2 / II: H-KLK([Leu-Lys])KLKKL / III: H-KLK([Leu-Lys])KL / IV: H-KLK([Leu-Lys])KL; amide I:6-IV:C, I:9-II:C, II:6-III:C), the “% viability HeLa cells” value with HeLa cells is reported as 107 ± 10%. The “% viability HEK cells” value in the data set with HEK293 cells was 71 ± 7%. On to `CCCCCCCCCCCCCCCCCC(=O)NCCCC[C@@H](NC(=O)[C@@H](CCCCNC(=O)[C@@H](CC(C)C)NC(=O)[C@@H](CCCCN)NC(=O)[C@@H](CCCCNC(=O)[C@@H](CC(C)C)NC(=O)[C@@H](CCCCN)NC(=O)[C@@H](CCCCNC(=O)[C@@H](CC(C)C)NC(=O)[C@H](N)CCCCN)NC(=O)[C@@H](CC(C)C)NC(=O)[C@H](N)CCCCN)NC(=O)[C@@H](CC(C)C)NC(=O)[C@@H](CCCCN)NC(=O)[C@@H](CCCCNC(=O)[C@@H](CC(C)C)NC(=O)[C@H](N)CCCCN)NC(=O)[C@@H](CC(C)C)NC(=O)[C@H](N)CCCCN)NC(=O)[C@@H](CC(C)C)NC(=O)[C@@H](CCCCN)NC(=O)[C@@H](CCCCNC(=O)[C@@H](CC(C)C)NC(=O)[C@@H](CCCCN)NC(=O)[C@@H](CCCCNC(=O)[C@@H](CC(C)C)NC(=O)[C@H](N)CCCCN)NC(=O)[C@@H](CC(C)C)NC(=O)[C@H](N)CCCCN)NC(=O)[C@@H](CC(C)C)NC(=O)[C@@H](CCCCN)NC(=O)[C@@H](CCCCNC(=O)[C@@H](CC(C)C)NC(=O)[C@H](N)CCCCN)NC(=O)[C@@H](CC(C)C)NC(=O)[C@H](N)CCCCN)C(=O)N[C@H](CS)C(N)=O` [Z20] (I: H-[dK][dL][dK]([dL-dK])[dK][dL][dK][dK][dL][dK][dK](Stearoyl)[dC]-NH2 / II: H-[dK][dL][dK]([dL-dK])[dK][dL][dK][dK][dL] / III: H-[dK][dL][dK]([dL-dK])[dK][dL] / IV: H-[dK][dL][dK]([dL-dK])[dK][dL]; amide I:6-IV:C, I:9-II:C, II:6-III:C), for which the “% viability HeLa cells” value with HeLa cells stood at 85 ± 9%. For the same molecule, the “% viability HEK cells” value in the data set on HEK293 cells turned out to be 85 ± 9%.
